Experimental data published in US10750743B2, “Pyridazinone herbicides” (E.I. DU PONT DE NEMOURS AND COMPANY, priority 2015, dated 2020).

Key:
Assay type in all cases: in vivo
[1] = system: ragweed (common ragweed, Ambrosia elatior); experiment: Test A postemergence application, visual injury rating; conditions: 0 to 100 scale, 0 no effect, 100 complete control
Method in brief: (§1)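 Injury ratings, 0 (no effect) to 100 (complete control), were scored visually versus untreated plants roughly 10 d after treatment under greenhouse conditions. Treatments used surfactant-containing solvent formulations, sprayed onto soil preemergence or onto one- to two-leaf seedlings (2-10 cm) postemergence, grown in a loam-sand mix.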

[2] = system: pigweed (Amaranthus retroflexus); experiment: as above; conditions: 0 to 100 scale, 0 no effect, 100 complete control
Method in brief: as §1

[3] = system: Foxtail, Green; experiment: as above; conditions: 0 to 100 scale, 0 no effect, 100 complete control
[4] = system: wheat (Triticum aestivum); experiment: as above; conditions: 0 to 100 scale, 0 no effect, 100 complete control
Method in brief: as §1

[5] = system: corn (Zea mays); experiment: as above; conditions: 0 to 100 scale, 0 no effect, 100 complete control
Method in brief: as §1

[6] = system: blackgrass (Alopecurus myosuroides); experiment: as above; conditions: 0 to 100 scale, 0 no effect, 100 complete control
Method in brief: as §1

[7] = system: barnyardgrass (Echinochloa crus-galli); experiment: as above; conditions: 0 to 100 scale, 0 no effect, 100 complete control
Method in brief: as §1

[8] = system: ryegrass, It. (Italian ryegrass, Lolium multiflorum); experiment: as above; conditions: 0 to 100 scale, 0 no effect, 100 complete control
Method in brief: as §1

[9] = system: galium (catchweed bedstraw, Galium aparine); experiment: as above; conditions: 0 to 100 scale, 0 no effect, 100 complete control
Method in brief: as §1

[10] = system: kochia (Kochia scoparia); experiment: as above; conditions: 0 to 100 scale, 0 no effect, 100 complete control
Method in brief: as §1

[11] = system: ragweed (common ragweed, Ambrosia elatior); experiment: Test A preemergence, directed soil spray, visual injury rating; conditions: 0 is no effect, 100 is complete control
Method in brief: as §1

[12] = system: pigweed (Amaranthus retroflexus); experiment: as above; conditions: 0 is no effect, 100 is complete control
Method in brief: as §1

[13] = system: Foxtail, Green; experiment: as above; conditions: 0 is no effect, 100 is complete control
[14] = system: barnyardgrass (Echinochloa crus-galli); experiment: as above; conditions: 0 is no effect, 100 is complete control
Method in brief: as §1

[15] = system: ryegrass, It. (Italian ryegrass, Lolium multiflorum); experiment: as above; conditions: 0 is no effect, 100 is complete control
Method in brief: as §1

[16] = system: kochia (Kochia scoparia); experiment: as above; conditions: 0 is no effect, 100 is complete control
Method in brief: as §1

[17] = system: rice (Oryza sativa); experiment: Test B flooded paddy test, visual rating; conditions: Flood, 250 g ai/ha, applied to paddy water, rated after 13 to 15 d
Method in brief: (§2)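 Ratings use a 0-100 visual scale, where 100 is complete control, and compare treated plants with controls after 13 to 15 d of greenhouse growth. Compound went straight into paddy water kept 3 cm over the soil surface, applied to seedlings at the 2-leaf stage.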

[18] = system: barnyardgrass (Echinochloa crus-galli); experiment: Test B flooded paddy test, visual rating; conditions: Flood, 250 g ai/ha, applied to paddy water, rated after 13 to 15 d
Method in brief: as §2

[19] = system: ducksalad (Heteranthera limosa); experiment: Test B flooded paddy test, visual rating; conditions: Flood, 250 g ai/ha, applied to paddy water, rated after 13 to 15 d
Method in brief: as §2

[20] = system: sedge, umbrella (small-flower umbrella sedge, Cyperus difformis); experiment: Test B flooded paddy test, visual rating; conditions: Flood, 250 g ai/ha, applied to paddy water, rated after 13 to 15 d
Method in brief: as §2

[21] = system: foxtail, giant (giant foxtail, Setaria faberii); experiment: Test A postemergence application, visual injury rating; conditions: 0 to 100 scale, 0 no effect, 100 complete control
Method in brief: as §1

[22] = system: foxtail, giant (giant foxtail, Setaria faberii); experiment: Test A preemergence, directed soil spray, visual injury rating; conditions: 0 is no effect, 100 is complete control
Method in brief: as §1

CC(=O)Oc1c(C)nn(C)c(=O)c1-c1c(C(F)(F)F)ccc2cc(C)oc12 [Compound 48]
Ragweed plant response rating ([1]; 31 g ai/ha): 70
Ragweed plant response rating ([1]; 125 g ai/ha): 90
Pigweed plant response rating ([2]; 31 g ai/ha): 70
Pigweed plant response rating ([2]; 125 g ai/ha): 100
Foxtail, Green plant response rating ([3]; 31 g ai/ha): 0
Foxtail, Green plant response rating ([3]; 125 g ai/ha): 10
Wheat plant response rating ([4]; 31 g ai/ha): 0
Wheat plant response rating ([4]; 125 g ai/ha): 0
Corn plant response rating ([5]; 31 g ai/ha): 0
Corn plant response rating ([5]; 125 g ai/ha): 20
Blackgrass plant response rating ([6]; 31 g ai/ha): 0
Blackgrass plant response rating ([6]; 125 g ai/ha): 0
Barnyardgrass plant response rating ([7]; 31 g ai/ha): 0
Barnyardgrass plant response rating ([7]; 125 g ai/ha): 10
Ryegrass, It. plant response rating ([8]; 31 g ai/ha): 0
Ryegrass, It. plant response rating ([8]; 125 g ai/ha): 30
Galium plant response rating ([9]; 31 g ai/ha): 80
Galium plant response rating ([9]; 125 g ai/ha): 80
Kochia plant response rating ([10]; 31 g ai/ha): 50
Kochia plant response rating ([10]; 125 g ai/ha): 70
Plant response rating (0 to 100 scale), Ragweed ([11]; 31 g ai/ha): 0
Plant response rating (0 to 100 scale), Ragweed ([11]; 125 g ai/ha): 90
Plant response rating (0 to 100 scale), Pigweed ([12]; 31 g ai/ha): 20
Plant response rating (0 to 100 scale), Pigweed ([12]; 125 g ai/ha): 100
Plant response rating (0 to 100 scale), Foxtail, Green ([13]; 31 g ai/ha): 0
Plant response rating (0 to 100 scale), Foxtail, Green ([13]; 125 g ai/ha): 20
Plant response rating (0 to 100 scale), Barnyardgrass ([14]; 31 g ai/ha): 0
Plant response rating (0 to 100 scale), Barnyardgrass ([14]; 125 g ai/ha): 20
Plant response rating (0 to 100 scale), Ryegrass, It. ([15]; 31 g ai/ha): 10
Plant response rating (0 to 100 scale), Ryegrass, It. ([15]; 125 g ai/ha): 20
Plant response rating (0 to 100 scale), Kochia ([16]; 31 g ai/ha): 10
Plant response rating (0 to 100 scale), Kochia ([16]; 125 g ai/ha): 20
Rice plant response rating (0 to 100 scale, 0 is no effect, 100 is complete control) [17]: 0
Barnyardgrass plant response rating (0 to 100 scale, 0 is no effect, 100 is complete control) [18]: 0
Ducksalad plant response rating (0 to 100 scale, 0 is no effect, 100 is complete control) [19]: 0
Sedge, Umbrella plant response rating (0 to 100 scale, 0 is no effect, 100 is complete control) [20]: 0

CCC(=O)Oc1c(C)nn(C)c(=O)c1-c1c(C(F)(F)F)ccc2cc(C)oc12 [Compound 47]
Ragweed plant response rating ([1]; 31 g ai/ha): 40
Ragweed plant response rating ([1]; 125 g ai/ha): 80
Pigweed plant response rating ([2]; 31 g ai/ha): 90
Pigweed plant response rating ([2]; 125 g ai/ha): 90
Foxtail, Green plant response rating ([3]; 31 g ai/ha): 0
Foxtail, Green plant response rating ([3]; 125 g ai/ha): 10
Wheat plant response rating ([4]; 31 g ai/ha): 0
Wheat plant response rating ([4]; 125 g ai/ha): 0
Corn plant response rating ([5]; 31 g ai/ha): 0
Corn plant response rating ([5]; 125 g ai/ha): 0
Blackgrass plant response rating ([6]; 125 g ai/ha): 0
Barnyardgrass plant response rating ([7]; 31 g ai/ha): 0
Barnyardgrass plant response rating ([7]; 125 g ai/ha): 10
Ryegrass, It. plant response rating ([8]; 31 g ai/ha): 0
Ryegrass, It. plant response rating ([8]; 125 g ai/ha): 30
Galium plant response rating ([9]; 31 g ai/ha): 70
Galium plant response rating ([9]; 125 g ai/ha): 80
Kochia plant response rating ([10]; 31 g ai/ha): 40
Kochia plant response rating ([10]; 125 g ai/ha): 70
Plant response rating (0 to 100 scale), Ragweed ([11]; 31 g ai/ha): 20
Plant response rating (0 to 100 scale), Ragweed ([11]; 125 g ai/ha): 80
Plant response rating (0 to 100 scale), Pigweed ([12]; 31 g ai/ha): 60
Plant response rating (0 to 100 scale), Pigweed ([12]; 125 g ai/ha): 100
Plant response rating (0 to 100 scale), Foxtail, Green ([13]; 31 g ai/ha): 0
Plant response rating (0 to 100 scale), Foxtail, Green ([13]; 125 g ai/ha): 0
Plant response rating (0 to 100 scale), Barnyardgrass ([14]; 31 g ai/ha): 0
Plant response rating (0 to 100 scale), Barnyardgrass ([14]; 125 g ai/ha): 30
Plant response rating (0 to 100 scale), Ryegrass, It. ([15]; 31 g ai/ha): 0
Plant response rating (0 to 100 scale), Ryegrass, It. ([15]; 125 g ai/ha): 80
Plant response rating (0 to 100 scale), Kochia ([16]; 31 g ai/ha): 40
Plant response rating (0 to 100 scale), Kochia ([16]; 125 g ai/ha): 50
Rice plant response rating (0 to 100 scale, 0 is no effect, 100 is complete control) [17]: 0
Barnyardgrass plant response rating (0 to 100 scale, 0 is no effect, 100 is complete control) [18]: 0
Ducksalad plant response rating (0 to 100 scale, 0 is no effect, 100 is complete control) [19]: 0
Sedge, Umbrella plant response rating (0 to 100 scale, 0 is no effect, 100 is complete control) [20]: 0

Cc1nn(C)c(=O)c(-c2ccc(Cl)c3ccsc23)c1OC(=O)c1ccccc1 [Compound 35]
Ragweed plant response rating ([1]; 1000 g ai/ha): 0
Pigweed plant response rating ([2]; 1000 g ai/ha): 0
Foxtail, Green plant response rating ([3]; 1000 g ai/ha): 0
Wheat plant response rating ([4]; 1000 g ai/ha): 0
Corn plant response rating ([5]; 1000 g ai/ha): 0
Blackgrass plant response rating ([6]; 1000 g ai/ha): 30
Barnyardgrass plant response rating ([7]; 1000 g ai/ha): 20
Ryegrass, It. plant response rating ([8]; 1000 g ai/ha): 70
Galium plant response rating ([9]; 1000 g ai/ha): 100
Kochia plant response rating ([10]; 1000 g ai/ha): 0
Plant response rating (0 to 100 scale), Ragweed ([11]; 1000 g ai/ha): 10
Plant response rating (0 to 100 scale), Pigweed ([12]; 1000 g ai/ha): 0
Plant response rating (0 to 100 scale), Foxtail, Green ([13]; 1000 g ai/ha): 0
Plant response rating (0 to 100 scale), Barnyardgrass ([14]; 1000 g ai/ha): 20
Plant response rating (0 to 100 scale), Ryegrass, It. ([15]; 1000 g ai/ha): 80
Plant response rating (0 to 100 scale), Kochia ([16]; 1000 g ai/ha): 0

Cc1cc2c(-c3c(OC(=O)c4ccccc4)c(C)nn(C)c3=O)ccc(Cl)c2o1 [Compound 44]
Ragweed plant response rating ([1]; 31 g ai/ha): 0
Ragweed plant response rating ([1]; 125 g ai/ha): 0
Pigweed plant response rating ([2]; 31 g ai/ha): 0
Pigweed plant response rating ([2]; 125 g ai/ha): 0
Wheat plant response rating ([4]; 31 g ai/ha): 0
Wheat plant response rating ([4]; 125 g ai/ha): 0
Corn plant response rating ([5]; 31 g ai/ha): 0
Corn plant response rating ([5]; 125 g ai/ha): 0
Blackgrass plant response rating ([6]; 31 g ai/ha): 0
Blackgrass plant response rating ([6]; 125 g ai/ha): 0
Barnyardgrass plant response rating ([7]; 31 g ai/ha): 0
Barnyardgrass plant response rating ([7]; 125 g ai/ha): 0
Ryegrass, It. plant response rating ([8]; 31 g ai/ha): 0
Ryegrass, It. plant response rating ([8]; 125 g ai/ha): 0
Foxtail, Giant plant response rating ([21]; 31 g ai/ha): 0
Foxtail, Giant plant response rating ([21]; 125 g ai/ha): 0
Galium plant response rating ([9]; 31 g ai/ha): 0
Galium plant response rating ([9]; 125 g ai/ha): 0
Kochia plant response rating ([10]; 31 g ai/ha): 0
Kochia plant response rating ([10]; 125 g ai/ha): 0
Plant response rating (0 to 100 scale), Ragweed ([11]; 31 g ai/ha): 0
Plant response rating (0 to 100 scale), Ragweed ([11]; 125 g ai/ha): 0
Plant response rating (0 to 100 scale), Pigweed ([12]; 31 g ai/ha): 0
Plant response rating (0 to 100 scale), Pigweed ([12]; 125 g ai/ha): 0
Plant response rating (0 to 100 scale), Barnyardgrass ([14]; 31 g ai/ha): 0
Plant response rating (0 to 100 scale), Barnyardgrass ([14]; 125 g ai/ha): 0
Plant response rating (0 to 100 scale), Ryegrass, It. ([15]; 31 g ai/ha): 0
Plant response rating (0 to 100 scale), Ryegrass, It. ([15]; 125 g ai/ha): 20
Plant response rating (0 to 100 scale), Foxtail, Giant ([22]; 31 g ai/ha): 0
Plant response rating (0 to 100 scale), Foxtail, Giant ([22]; 125 g ai/ha): 0
Plant response rating (0 to 100 scale), Kochia ([16]; 31 g ai/ha): 0
Plant response rating (0 to 100 scale), Kochia ([16]; 125 g ai/ha): 0
Rice plant response rating (0 to 100 scale, 0 is no effect, 100 is complete control) [17]: 0
Barnyardgrass plant response rating (0 to 100 scale, 0 is no effect, 100 is complete control) [18]: 0
Ducksalad plant response rating (0 to 100 scale, 0 is no effect, 100 is complete control) [19]: 0
Sedge, Umbrella plant response rating (0 to 100 scale, 0 is no effect, 100 is complete control) [20]: 0
